Measurements published in PMC8246065 (The EMBO Journal, 2021).
Read-outs that look alike come from different tables or passages of the source.

Experiments:
BMDMs = assay: Il6 expression and multiplex cytokine production in WT, Nod1/2 KO and Rip2 KO BMDMs; type: cell-based, mice; conditions: S1P 10 µM with digitonin (2.5 µg/ml); WT vs Nod1/2 KO and Rip2 KO
Method: The human monocytic cell line THP‐1 was obtained from the American Type Culture Collection (ATCC, TIB‐202) and maintained in RPMI 1640 (Gibco, 31870) with 10% (v:v) heat‐inactivated fetal bovine serum (FBS, Sigma‐Aldrich, F0804), 1 mM sodium pyruvate (Gibco, 11360070), 2 mM L‐glutamine (Gibco, 25030081), 10 mM HEPES buffer (Gibco, 15630080), pH 7.2‐7.5, and 50 µM 2‐mercaptoethanol (Gibco, 31350010). To differentiate THP‐1 into macrophage‐like cells, THP‐1 cells were stimulated with 50 ng/ml phorbol 12‐myristate 13‐acetate (Sigma‐Aldrich, P8139) for 24 h and then incubated with fresh medium for another 48 h. HEK293T WT and HEK293T NOD1/2 dKO cells were generated as described (Dagil et al, 2016). […]
Total RNA was isolated with TRIzol reagent, as described by the manufacturer (Invitrogen). […] Gene expression was normalized to glyceraldehyde‐3‐phosphate dehydrogenase (GAPDH), and fold changes were calculated against corresponding controls. qRT–PCR data were representative of at least three independent experiments, with at least 2 technical replicates per experiment. […]

NLRP3 = target: T1, NLRP3 (Homo sapiens, UniProt Q96P20); assay: MST binding to NLRP3-GFP; conditions: Fig 6C
T1 construct: Addgene (plasmid only) 73955
Method: Binding of NOD1, NOD2, GFP, or NLRP3‐GFP to different ligands was measured by microscale thermophoresis (MST). 20 nM GFP or GFP‐tagged proteins in MST buffer (PBS pH 7.4, containing 0.5% NP‐40 and 10 mM DTT) was incubated with different concentrations of ligands. Immediately, samples were loaded into standard glass capillaries (NanoTemper) and thermophoresis analysis was performed on a NanoTemper Monolith NT.115 instrument (40% LED, 80% MST power) at 22°C. A laser on‐time of 30 s and a laser off‐time of 5 s were used. The experiment was performed in triplicates, and the MST curves were fitted using NT analysis software to obtain the K d values.

NOD1 and NOD2 = assay: Immunoprecipitation with lipid-coated beads; type: binding, human; conditions: HeLa NOD1-GFP / NOD2-GFP lysates, room temperature 2 h
Method: (§1) HeLa NOD1 or NOD2 cells were grown overnight and afterward treated with doxycycline overnight to induce NOD1 or NOD2 expression. Cells of one 10‐cm dish were lysed with 500 µl of lysis buffer (25 mM Tris–HCl, pH 7.5, 150 mM NaCl, 1 mM EDTA, 1% NP‐40, and 5% glycerol) supplemented with protease inhibitors (Roche, 05892791001) on ice for 20 min. Lysates were centrifuged at 16,000 × g at 4°C for 10 min, and supernatants were mixed with GFP‐Trap agarose (ChromoTek GmbH, gta‐20) overnight at 4°C. Afterward, agaroses were washed twice with PBS and boiled with sample buffer for SDS–PAGE. For lipid‐coated beads IP, lipid‐coated beads were incubated with supernatants for 2 h at room temperature and then washed with lysis buffer for three times and boiled with sample buffer for SDS–PAGE.

NOD1/2-RIP2 interaction = assay: GFP immunoprecipitation of NOD1/2 and Western blot for RIP2; type: cell-based, human; conditions: S1P 20 µM with digitonin, 1 h
Method: as §1

NOD2 = NOD2 (Homo sapiens, UniProt Q9HC29); assay: Microscale thermophoresis (MST) binding to purified NOD2-GFP
Method: The lysates were incubated with 2 ml GFP‐Trap agarose at 4°C for 4 h. The agarose was collected with Poly‐Prep columns by gravity flow. […] To remove heat shock proteins, columns were further washed with 50 ml wash buffer III (50 mM Tris–HCl, pH 7.5, 150 mM NaCl, 5 mM MgCl2+, 1 mM ATP). To elute the proteins, the agarose was mixed with 2 ml elution buffer (100 mM Glycine, pH 2.5) for 1 min and the eluted proteins were immediately neutralized with 0.2 ml of 1 M Tris, pH 10.5.

Sequence of NOD2 (Q9HC29 whole entry): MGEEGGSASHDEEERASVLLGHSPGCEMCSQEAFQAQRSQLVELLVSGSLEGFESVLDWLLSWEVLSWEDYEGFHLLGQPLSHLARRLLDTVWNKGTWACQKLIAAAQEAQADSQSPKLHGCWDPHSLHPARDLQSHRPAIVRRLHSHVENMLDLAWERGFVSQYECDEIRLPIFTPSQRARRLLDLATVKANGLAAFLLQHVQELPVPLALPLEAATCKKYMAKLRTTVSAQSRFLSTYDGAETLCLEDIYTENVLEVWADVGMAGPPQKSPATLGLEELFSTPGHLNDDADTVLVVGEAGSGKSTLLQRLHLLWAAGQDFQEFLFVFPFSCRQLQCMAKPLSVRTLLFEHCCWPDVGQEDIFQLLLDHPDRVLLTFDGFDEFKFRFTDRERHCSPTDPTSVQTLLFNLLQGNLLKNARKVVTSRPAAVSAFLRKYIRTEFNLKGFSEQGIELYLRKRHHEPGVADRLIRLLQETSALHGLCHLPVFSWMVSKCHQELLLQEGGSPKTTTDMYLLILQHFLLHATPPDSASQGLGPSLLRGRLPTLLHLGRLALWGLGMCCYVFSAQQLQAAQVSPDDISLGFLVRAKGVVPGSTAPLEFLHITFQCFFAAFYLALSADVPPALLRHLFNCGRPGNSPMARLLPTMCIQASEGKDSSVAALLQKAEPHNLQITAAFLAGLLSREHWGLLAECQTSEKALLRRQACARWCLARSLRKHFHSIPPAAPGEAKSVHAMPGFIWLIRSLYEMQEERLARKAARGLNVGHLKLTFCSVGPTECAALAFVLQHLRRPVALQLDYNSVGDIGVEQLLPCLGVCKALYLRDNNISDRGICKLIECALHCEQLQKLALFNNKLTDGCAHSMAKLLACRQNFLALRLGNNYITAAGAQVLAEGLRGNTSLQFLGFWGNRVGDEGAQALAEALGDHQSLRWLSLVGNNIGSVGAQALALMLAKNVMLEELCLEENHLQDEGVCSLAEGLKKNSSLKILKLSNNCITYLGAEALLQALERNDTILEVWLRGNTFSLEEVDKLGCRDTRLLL
T1 sequence (Q96P20 whole entry): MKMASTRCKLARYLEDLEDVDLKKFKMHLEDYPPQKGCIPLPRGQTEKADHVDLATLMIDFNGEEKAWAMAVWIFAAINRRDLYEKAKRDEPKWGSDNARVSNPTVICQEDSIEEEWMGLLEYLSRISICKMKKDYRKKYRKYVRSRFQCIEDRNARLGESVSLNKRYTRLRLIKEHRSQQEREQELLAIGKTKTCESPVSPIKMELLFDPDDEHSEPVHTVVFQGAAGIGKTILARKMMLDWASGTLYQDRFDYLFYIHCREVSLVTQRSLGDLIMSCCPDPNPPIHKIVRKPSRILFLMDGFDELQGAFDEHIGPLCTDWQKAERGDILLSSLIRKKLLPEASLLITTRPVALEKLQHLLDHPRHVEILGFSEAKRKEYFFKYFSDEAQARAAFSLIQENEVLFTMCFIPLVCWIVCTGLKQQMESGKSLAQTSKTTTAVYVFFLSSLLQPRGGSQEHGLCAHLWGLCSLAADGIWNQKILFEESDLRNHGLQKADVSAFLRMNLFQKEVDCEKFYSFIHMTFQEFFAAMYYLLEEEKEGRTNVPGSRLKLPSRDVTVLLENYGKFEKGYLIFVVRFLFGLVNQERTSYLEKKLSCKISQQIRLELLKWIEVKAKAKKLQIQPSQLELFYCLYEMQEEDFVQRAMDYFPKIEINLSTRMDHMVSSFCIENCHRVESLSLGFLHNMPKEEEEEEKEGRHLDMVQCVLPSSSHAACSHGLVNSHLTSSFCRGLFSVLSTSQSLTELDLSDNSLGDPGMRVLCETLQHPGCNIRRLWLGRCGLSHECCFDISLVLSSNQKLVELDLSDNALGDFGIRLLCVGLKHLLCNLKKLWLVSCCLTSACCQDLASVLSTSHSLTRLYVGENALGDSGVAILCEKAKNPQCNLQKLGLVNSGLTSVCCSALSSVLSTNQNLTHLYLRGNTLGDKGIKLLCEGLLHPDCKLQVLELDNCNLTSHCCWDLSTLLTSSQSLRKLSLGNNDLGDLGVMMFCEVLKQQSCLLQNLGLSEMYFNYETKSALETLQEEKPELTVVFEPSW

Direct interaction with NLRP3 by MST (NLRP3): not observed | Kd (NOD2; Fig 6E, one representative experiment, read-out: Kd (NOD2/ligand)): 5.36 ± 1.91 µM | Kd (NOD2; Fig EV5C, purified NOD2, read-out: Kd (NOD2/ligand)): 3.19 ± 1.97 µM | Kd (NOD2; Kd value of S1P interacting with NOD2, as stated in text): ~5 µM | Kd (NOD2; Kd(NOD2: S1P), Fig 7D, S1P alone): 2.4 ± 0.38 µM
SMILES: CCCCCCCCCCCCC/C=C/[C@@H](O)[C@@H](N)COP(=O)(O)O [S1P, sphingosine‐1‐phosphate]
Il6 expression and production of IL6, CXCL2, CCL5 and IL16 (BMDMs): markedly impaired in Nod1/2 KO and Rip2 KO BMDMs | Immunoprecipitation of NOD1 and NOD2 with lipid-coated beads (NOD1 and NOD2): specifically immunoprecipitated | Interaction between NOD1/2 and RIP2 (NOD1/2-RIP2 interaction): stimulated the interaction between NOD1/2 and RIP2
